Results on three compounds are retold here after PMC11684530 (ACS Omega, 2024).

For this experiment, the target named is T1, COX-2 (cyclooxygenase-2) (Homo sapiens, UniProt P35354).
T1 sequence (P35354 18-604): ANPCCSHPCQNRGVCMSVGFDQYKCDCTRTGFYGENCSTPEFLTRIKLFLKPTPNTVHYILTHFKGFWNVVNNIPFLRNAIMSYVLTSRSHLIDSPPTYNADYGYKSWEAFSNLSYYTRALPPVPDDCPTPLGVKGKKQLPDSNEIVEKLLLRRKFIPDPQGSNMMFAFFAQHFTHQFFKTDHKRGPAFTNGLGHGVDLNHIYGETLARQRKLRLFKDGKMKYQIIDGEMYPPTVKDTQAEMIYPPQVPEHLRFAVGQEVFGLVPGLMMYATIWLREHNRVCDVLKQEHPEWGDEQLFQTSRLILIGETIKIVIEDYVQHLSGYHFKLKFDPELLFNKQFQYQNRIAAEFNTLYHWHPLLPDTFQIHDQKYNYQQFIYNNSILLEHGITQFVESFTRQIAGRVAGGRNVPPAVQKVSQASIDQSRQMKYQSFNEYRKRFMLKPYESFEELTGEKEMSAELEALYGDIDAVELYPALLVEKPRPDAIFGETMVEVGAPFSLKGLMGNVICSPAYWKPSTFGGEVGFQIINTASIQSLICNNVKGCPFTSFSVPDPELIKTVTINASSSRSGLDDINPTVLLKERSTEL
Briefly: fluorometric COX-2 inhibitor screening kit. It counts as biochemical.

The structures appear in SMILES notation. pIC50: −log10 of the molar value.

By pIC50 is commonly meant the IC50 on a negative log10 scale, so that one unit is a factor of ten. Lower therefore signals a large IC50.

In turn, `O=c1cc(-c2ccccc2)oc2cc(O)cc(O)c12` [chrysin] gave a pIC50 of 4.73. The compound `O=c1cc(-c2ccccc2)oc2cc(O)c(CCO)c(O)c12` [1a, 5,7-Dihydroxy-6-(2-hydroxyethyl)-2-phenyl-4H-chromen-4-one] had a pIC50 of 5.02.

Compound `CC(C)=CCc1c(O)cc(O)c2c(=O)cc(-c3ccccc3)oc12` [compound 8, 5,7-Dihydroxy-8-(3-methylbut-2-en-1-yl)-2-phenyl-4H-chromen-4-one] gave a pIC50 of 5.17.
